Read-outs that look alike come from different tables or passages of the source.
Experiment: Cell viability of murine macrophages (WST-1 mitochondrial respiration), in parallel with NO release
Format: cell-based
Details: mouse, read-out: Cell viability (% as compared to the negative control)
Description: MURINS RAW 267.4 Macrophage cell line (Sigma-Aldrich, No. P6110401, Lot. 091006), low number of passages (less than 50).
Complete medium: DMEM with stabilized L-glutamine (Dulbecco's Minimum Essential Medium, PAN BIOTECH. Lot 974251) supplemented with Penicillin 100 IU/ml and streptomycin 100 μg/m1 (PAN BIOTECH, Lot 225614), and 10% inactivated calf serum (PAN BIOTECH, Lot P460518), pH 7.2, freshly prepared, stored for less than 3 weeks.
Cannabidiol (CBD) is diluted in DMSO (10 mg/mL storage solution), and subjected to an ultrasonic bath for 20 minutes. The Neutrazen™ solution is diluted in PBS (Phosphate buffer saline, Sigma-Aldrich).
RAW 267.4 murine macrophages were inoculated into 48-well tissue culture plates at a concentration of 1.10^5 cells/ml (200 μl/well) and incubated for 24 hours at 37° C. (5% CO2).
At the end of the incubation period, the culture medium was replaced with 200 μl of medium containing the appropriate concentrations of the material to be tested, and the cells were incubated at 37° C. (5% CO2) for one hour.
At the end of the incubation period, pro-inflammatory E. coli LPS was added to the cell cultures (1 μg/ml. Then the cells were incubated at 37° C. (5% CO2) for 24 hours.
In parallel with the evaluation of the release of NO, the cell viability was measured to validate the tests. Vital Stain Reagent WST-1 was used to measure cellular mitochondrial respiration. For this, the culture medium was decanted and 100 μl of WST-1 reagent ( 1/10 dilution) were added to each well. After an incubation period of 30 min at 37° C. (5% CO2), the Optical Density (OD) of each well was read at a wavelength of 450 nm by an Infinite M200 Pro fluorescence-luminescence reader (TECAN). The results obtained for the wells treated with the test material were compared with those of the untreated control wells (DMSO, 100% viability) and converted into percentage values.
Inhibition of NO release and inhibition of cell viability were expressed as a percentage relative to the negative controls: […]
The concentrations of test material causing a 50% decrease in NO release (IC50 (NO release)) and a 50% decrease in cell viability (IC50 (cell viability)) respectively were calculated using TableCurve software Version 2.0.
Analysis of the anti-inflammatory activity and of the cell viability of the cannabidiol/palmitoyl tripeptide-8 (Neutrazen™) association in a mixture by isobologram analysis. For each concentration of Neutrazen™ (0.01, 0.025, 0.05 and 0.1%), different concentrations of CBD are tested (0.01, 0.025, 0.05, 0.1, 0.25, 0.5, 1 and 2.5%) to determine both the production of NO and cell viability.
The results obtained with the different mixtures of CBD and Neutrazen™ made it possible to calculate the pairs of concentrations corresponding to a 50% reduction in the production of NO and a 50% reduction in cell viability.

## C=C(C)[C@@H]1CCC(C)=C[C@H]1c1c(O)cc(CCCCC)cc1O [CBD]
pH 7.2, CBD 0.01 weight % in mixture with NeutraZen 0.01%
  viability at 25 h, 0.01 weight %: 98.6%
pH 7.2, CBD 0.01 weight % in mixture with NeutraZen 0.025%
  viability at 25 h, 0.01 weight %: 102%
pH 7.2, CBD 0.01 weight % in mixture with NeutraZen 0.05%
  viability at 25 h, 0.01 weight %: 98%
pH 7.2, CBD 0.01 weight % in mixture with NeutraZen 0.1%
  viability at 25 h, 0.01 weight %: 101%
pH 7.2, CBD 0.025 weight % in mixture with NeutraZen 0.01%
  viability at 25 h, 0.025 weight %: 99.7%
pH 7.2, CBD 0.025 weight % in mixture with NeutraZen 0.025%
  viability at 25 h, 0.025 weight %: 104%
pH 7.2, CBD 0.025 weight % in mixture with NeutraZen 0.05%
  viability at 25 h, 0.025 weight %: 99.1%
pH 7.2, CBD 0.025 weight % in mixture with NeutraZen 0.1%
  viability at 25 h, 0.025 weight %: 99.7%
pH 7.2, CBD 0.05 weight % in mixture with NeutraZen 0.01%
  viability at 25 h, 0.05 weight %: 97.7%
pH 7.2, CBD 0.05 weight % in mixture with NeutraZen 0.025%
  viability at 25 h, 0.05 weight %: 96.2%
pH 7.2, CBD 0.05 weight % in mixture with NeutraZen 0.05%
  viability at 25 h, 0.05 weight %: 101%
pH 7.2, CBD 0.05 weight % in mixture with NeutraZen 0.1%
  viability at 25 h, 0.05 weight %: 103%
pH 7.2, CBD 0.1 weight % in mixture with NeutraZen 0.01%
  viability at 25 h, 0.1 weight %: 102%
pH 7.2, CBD 0.1 weight % in mixture with NeutraZen 0.025%
  viability at 25 h, 0.1 weight %: 100%
pH 7.2, CBD 0.1 weight % in mixture with NeutraZen 0.05%
  viability at 25 h, 0.1 weight %: 100%
pH 7.2, CBD 0.1 weight % in mixture with NeutraZen 0.1%
  viability at 25 h, 0.1 weight %: 97.1%
pH 7.2, CBD 0.25 weight % in mixture with NeutraZen 0.01%
  viability at 25 h, 0.25 weight %: 92.2%
pH 7.2, CBD 0.25 weight % in mixture with NeutraZen 0.025%
  viability at 25 h, 0.25 weight %: 88.5%
pH 7.2, CBD 0.25 weight % in mixture with NeutraZen 0.05%
  viability at 25 h, 0.25 weight %: 98.6%
pH 7.2, CBD 0.25 weight % in mixture with NeutraZen 0.1%
  viability at 25 h, 0.25 weight %: 95.7%
pH 7.2, CBD 0.5 weight % in mixture with NeutraZen 0.01%
  viability at 25 h, 0.5 weight %: 6.34%
pH 7.2, CBD 0.5 weight % in mixture with NeutraZen 0.025%
  viability at 25 h, 0.5 weight %: 6.95%
pH 7.2, CBD 0.5 weight % in mixture with NeutraZen 0.05%
  viability at 25 h, 0.5 weight %: 7.76%
pH 7.2, CBD 0.5 weight % in mixture with NeutraZen 0.1%
  viability at 25 h, 0.5 weight %: 8.56%
pH 7.2, CBD 1 weight % in mixture with NeutraZen 0.01%
  viability at 25 h, 1 weight %: 5.66%
pH 7.2, CBD 1 weight % in mixture with NeutraZen 0.025%
  viability at 25 h, 1 weight %: 5.19%
pH 7.2, CBD 1 weight % in mixture with NeutraZen 0.05%
  viability at 25 h, 1 weight %: 7.74%
pH 7.2, CBD 1 weight % in mixture with NeutraZen 0.1%
  viability at 25 h, 1 weight %: 8.58%
pH 7.2, CBD 2.5 weight % in mixture with NeutraZen 0.01%
  viability at 25 h, 2.5 weight %: 7.21%
pH 7.2, CBD 2.5 weight % in mixture with NeutraZen 0.025%
  viability at 25 h, 2.5 weight %: 4.12%
pH 7.2, CBD 2.5 weight % in mixture with NeutraZen 0.05%
  viability at 25 h, 2.5 weight %: 8.14%
pH 7.2, CBD 2.5 weight % in mixture with NeutraZen 0.1%
  viability at 25 h, 2.5 weight %: 8.93%
pH 7.2, sample alone at 0.01 weight %
  viability at 25 h, 0.01 weight %: 99.4%
pH 7.2, sample alone at 0.025 weight %
  viability at 25 h, 0.025 weight %: 98.3%
pH 7.2, sample alone at 0.05 weight %
  viability at 25 h, 0.05 weight %: 97.9%
pH 7.2, sample alone at 0.1 weight %
  viability at 25 h, 0.1 weight %: 53.1%
pH 7.2, sample alone at 0.25 weight %
  viability at 25 h, 0.25 weight %: 8.24%
pH 7.2, sample alone at 0.5 weight %
  viability at 25 h, 0.5 weight %: 4.73%
pH 7.2, sample alone at 1 weight %
  viability at 25 h, 1 weight %: 2.9%
